Source: publication PMC8362039, “Development of Non‐Hydrolysable Oligosaccharide Activity‐Based Inactivators for Endoglycanases: A Case Study on α‐1,6 Mannanases” (Chemistry (Weinheim an Der Bergstrasse, Germany), 2021)

Key:
Test in all cases: intact protein mass spectrometry
Type in all cases: binding
BcGH76 [1] = target: T1, BcGH76 (Niallia circulans, UniProt Q9Z4P9); conditions: probe:protein 10:1, 25 mM HEPES pH 7, 100 mM NaCl, 293 K, 22 h
T1 construct: gene aman6; recombinant GH76 endo-mannanase; borders and tags not given; R341Q crystallisation variant also used
Excerpt: (§1) intact protein mass spectrometry on BcGH76

BcGH76 [2] = target: T2, BcGH76 (Niallia circulans, UniProt Q9Z4P9, R341Q); conditions: covalent, probe:protein 10:1, 25 mM HEPES pH 7, 100 mM NaCl, 293 K
T2 construct: gene aman6; recombinant GH76 endo-mannanase; borders and tags not given; R341Q crystallisation variant also used
Excerpt: as §1

BcGH76 [3] = target: T3, BcGH76 (Niallia circulans, UniProt Q9Z4P9, D125N); conditions: probe:protein 10:1, 25 mM HEPES pH 7, 100 mM NaCl, 293 K
T3 construct: gene aman6; recombinant GH76 endo-mannanase; borders and tags not given; R341Q crystallisation variant also used
Excerpt: as §1

BcGH76 [4] = target: T4, BcGH76 (Niallia circulans, UniProt Q9Z4P9, D125N/R341Q); conditions: covalent, probe:protein 10:1, 25 mM HEPES pH 7, 100 mM NaCl, 293 K
T4 construct: gene aman6; recombinant GH76 endo-mannanase; borders and tags not given; R341Q crystallisation variant also used
Excerpt: as §1

T2 sequence (Q9Z4P9 entry or part of it R341Q): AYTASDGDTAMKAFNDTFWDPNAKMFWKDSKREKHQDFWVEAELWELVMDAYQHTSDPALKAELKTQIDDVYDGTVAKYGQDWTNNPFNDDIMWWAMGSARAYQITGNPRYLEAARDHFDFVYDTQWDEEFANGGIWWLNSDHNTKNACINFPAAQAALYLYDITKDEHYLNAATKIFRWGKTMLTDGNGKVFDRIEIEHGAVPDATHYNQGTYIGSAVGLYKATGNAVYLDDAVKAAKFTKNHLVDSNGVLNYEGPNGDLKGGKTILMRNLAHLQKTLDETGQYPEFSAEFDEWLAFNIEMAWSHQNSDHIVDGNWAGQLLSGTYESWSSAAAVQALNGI
T1 sequence (Q9Z4P9 entry or part of it): as the sequence (Q9Z4P9 entry or part of it R341Q) above, with Q307R counted along it
T4 sequence (Q9Z4P9 entry or part of it D125N/R341Q): as the sequence (Q9Z4P9 entry or part of it R341Q) above, with D91N counted along it
T3 sequence (Q9Z4P9 entry or part of it D125N): as the sequence (Q9Z4P9 entry or part of it R341Q) above, with D91N, Q307R counted along it

| covalent labelling (BcGH76 [1]) | 16 h incubation / 2 (BcGH76 [2]; 22 h) | 22 h incubation / 2 (BcGH76 [3]; covalent) | 22 h incubation / 2 (BcGH76 [4]) | 22 h incubation / 1 (BcGH76 [2]) | percent covalent labelling (BcGH76 [1]) | 16 h incubation / 3 (BcGH76 [2]; 22 h) | covalent labelling of protein (%) (BcGH76 [3]; 22 h) | 22 h incubation / 3 (BcGH76 [4]) | SMILES |
| --- | --- | --- | --- | --- | --- | --- | --- | --- | --- |
| 30% | 17% | 85% | 85% | – | – | – | – | – | OC[C@H]1O[C@H](OC[C@H]2O[C@H](OC[C@@H]3[C@@H](O)[C@H](O)[C@H](O)[C@H]4O[C@@H]34)[C@@H](O)[C@@H](O)[C@@H]2O)[C@@H](O)[C@@H](O)[C@@H]1O [compound 2, trisaccharide 2] |
| 30% | – | – | – | 30% | – | – | – | – | OC[C@H]1O[C@H](OC[C@@H]2[C@@H](O)[C@H](O)[C@H](O)[C@H]3O[C@@H]23)[C@@H](O)[C@@H](O)[C@@H]1O [compound 1, α‐1,6‐α‐manno‐cyclophellitol disaccharide 1] |
| – | – | – | – | – | 100% | 100% | 44% | 45% | OC[C@H]1O[C@H](OC[C@H]2C[C@H](OC[C@@H]3[C@@H](O)[C@H](O)[C@H](O)[C@H]4O[C@@H]34)[C@@H](O)[C@@H](O)[C@@H]2O)[C@@H](O)[C@@H](O)[C@@H]1O [compound 3, carba‐trisaccharide cyclophellitol 3] |
